In patent US20030068611A1, “Methods for increasing microbial metabolic efficiency through regulation of oxidative stress” (priority 2001, published 2003):

Tests used:
Format in all cases: cell-based, E. coli
[1] = test system: oxyR2; details: 10 microliters of 30% hydrogen peroxide or cumene hydroperoxide on 1/4 in filter disc on LB plate, 24 h at 37° C., typical numbers
[2] = test system: wild type; details: 10 microliters of 30% hydrogen peroxide or cumene hydroperoxide on 1/4 in filter disc on LB plate, 24 h at 37° C., typical numbers
[3] = test system: MC4100oxyR2; assay: resistance to organic solvent, tetralin overlay on LB plate, oxyR2 mutant; details: oxyR2 mutant strain; 5 mm depth tetralin overlay on LB agar; overnight at 37° C.
Method: (§1) Wild type MC4100/oxyR^+ and MC4100oxyR2 mutants were streaked onto the same LB plate made with a 80 mm diameter PYREX Petri dish (VWR International, West Chester, Pa.). Solvent tetralin (1,2,3,4-tetrahydronaphthalene) was then poured onto the LB agar surface to have a 5 mm depth of overlay. The plate was then covered with a Petri dish cover and sealed with a strip of parafilm (American National Can, Chicago, Ill.), and put into 37° C. incubator. After overnight culturing, tetralin was decanted and the plate was put into a fume hood for 30 min to allow evaporation of the remaining tetralin. A picture of the plate was taken with an Eagle Eye® II still imaging system (Stratagene, La Jolla, Calif.).

[4] = test system: MC4100/oxyR^+; assay: resistance to organic solvent, tetralin overlay on LB plate, wild type; details: wild type strain (oxyR^+); 5 mm depth tetralin overlay on LB agar; overnight at 37° C.
Method: as §1

Row | SMILES | Diameter of the zone killed [1] [mm] | Diameter of the zone killed [2] [mm] | colony growth under solvent overlay [3] | colony growth under solvent overlay [4]
1 | OO [Hydrogen peroxide] | 13 | 25 |  | 
2 | c1ccc2c(c1)CCCC2 [tetralin, 1,2,3,4-tetrahydronaphthalene] |  |  | grew just fine | No colony was observed
